Results on 13 compounds are retold here after patent US8859569B2, “Substituted annellated pyrimidines and use thereof” (Bayer Pharma Aktiengesellschaft, priority 2011, dated 2014).

Assay [1] has as its target T1, human phosphodiesterase 5 (PDE-5) (Homo sapiens, UniProt O76074).
T1 construct: PDE-5 preparations are obtained from human platelets by lysis; from tissue; host or cells: human platelets
Kind of assay: Inhibition of human phosphodiesterase 5 (PDE-5), SPA assay. Format: biochemical. The settings on record: PDE-5 preparation from human platelets, [8-3H]cGMP substrate. As to the method: B-6. Inhibition of Human Phosphodiesterase 5 (PDE-5)
PDE-5 preparations are obtained from human platelets by lysis (Microfluidizer®, 800 bar, 3 passages), followed by centrifugation (75000 g, 60 min, 4° C.) and ion-exchange chromatography of the supernatant on a Mono Q 10/10 column (linear sodium chloride gradient, elution with a 0.2-0.3M solution of sodium chloride in buffer (20 mM Hepes pH 7.2, 2 mM magnesium chloride). Fractions that have PDE-5 activity are combined (PDE-5 preparation) and stored at −80° C.
For determining their in-vitro action on human PDE-5, the test substances are dissolved in 100% DMSO and serial dilutions are prepared. Typically, dilution series (1:3) from 200 μM to 0.091 μM are prepared (resultant final concentrations in the test: 4 μM to 0.0018 μM). In each case 2 μL of the diluted solutions of the substance are put in the wells of microtitre plates (Isoplate-96/200W; Perkin-Elmer). Then 50 μL of a dilution of the PDE-5 preparation described above is added. The dilution of the PDE-5 preparation is selected so that during subsequent incubation less than 70% of the substrate is reacted (typical dilution: 1:100; dilution buffer: 50 mM Tris/hydrochloric acid pH 7.5, 8.3 mM magnesium chloride, 1.7 mM EDTA, 0.2% BSA). The substrate [8-^3H]cyclic guanosine-3′,5′-monophosphate (1 μCi/μL; Perkin-Elmer) is diluted 1:2000 with assay buffer (50 mM Tris/hydrochloric acid pH 7.5, 8.3 mM magnesium chloride, 1.7 mM EDTA) to a concentration of 0.0005 μCi/μL. The enzyme reaction is finally started by adding 50 μL (0.025 μCi) of the diluted substrate. The test preparations are incubated for 60 min at room temperature and the reaction is stopped by adding 25 μL of a suspension of 18 mg/mL of Yttrium Scintillation Proximity Beads in water (phosphodiesterase beads for SPA assays, RPNQ 0150, Perkin-Elmer). The microtitre plates are sealed with film and left to stand for 60 min at room temperature. Then the plates are measured for 30 s per well in a Microbeta scintillation counter (Perkin-Elmer). IC50 values are determined on the basis of the graphs plotted of the substance concentration versus the percentage PDE-5 inhibition.

Assay [2] has as its target T2, recombinant guanylate cyclase reporter cell line (Rattus norvegicus, UniProt P19686+P20595).
T2 construct: expressed in transfected cells
T2 sequence (P20595 1-619): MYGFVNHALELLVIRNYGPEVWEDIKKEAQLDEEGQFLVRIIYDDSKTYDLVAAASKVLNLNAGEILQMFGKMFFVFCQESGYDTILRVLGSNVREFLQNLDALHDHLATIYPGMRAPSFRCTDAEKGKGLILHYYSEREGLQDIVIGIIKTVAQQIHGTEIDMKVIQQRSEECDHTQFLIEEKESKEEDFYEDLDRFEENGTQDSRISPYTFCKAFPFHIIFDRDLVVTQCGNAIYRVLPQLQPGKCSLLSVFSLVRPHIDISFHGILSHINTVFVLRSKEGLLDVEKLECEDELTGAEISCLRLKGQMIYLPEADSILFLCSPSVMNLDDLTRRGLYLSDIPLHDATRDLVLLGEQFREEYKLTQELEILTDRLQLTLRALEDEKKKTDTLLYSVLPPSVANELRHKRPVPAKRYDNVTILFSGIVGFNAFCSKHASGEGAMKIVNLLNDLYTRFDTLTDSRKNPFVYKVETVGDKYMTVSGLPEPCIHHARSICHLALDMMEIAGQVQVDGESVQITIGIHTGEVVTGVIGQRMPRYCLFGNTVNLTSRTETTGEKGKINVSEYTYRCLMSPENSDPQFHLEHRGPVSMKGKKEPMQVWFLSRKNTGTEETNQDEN
T2 sequence (P19686 1-690): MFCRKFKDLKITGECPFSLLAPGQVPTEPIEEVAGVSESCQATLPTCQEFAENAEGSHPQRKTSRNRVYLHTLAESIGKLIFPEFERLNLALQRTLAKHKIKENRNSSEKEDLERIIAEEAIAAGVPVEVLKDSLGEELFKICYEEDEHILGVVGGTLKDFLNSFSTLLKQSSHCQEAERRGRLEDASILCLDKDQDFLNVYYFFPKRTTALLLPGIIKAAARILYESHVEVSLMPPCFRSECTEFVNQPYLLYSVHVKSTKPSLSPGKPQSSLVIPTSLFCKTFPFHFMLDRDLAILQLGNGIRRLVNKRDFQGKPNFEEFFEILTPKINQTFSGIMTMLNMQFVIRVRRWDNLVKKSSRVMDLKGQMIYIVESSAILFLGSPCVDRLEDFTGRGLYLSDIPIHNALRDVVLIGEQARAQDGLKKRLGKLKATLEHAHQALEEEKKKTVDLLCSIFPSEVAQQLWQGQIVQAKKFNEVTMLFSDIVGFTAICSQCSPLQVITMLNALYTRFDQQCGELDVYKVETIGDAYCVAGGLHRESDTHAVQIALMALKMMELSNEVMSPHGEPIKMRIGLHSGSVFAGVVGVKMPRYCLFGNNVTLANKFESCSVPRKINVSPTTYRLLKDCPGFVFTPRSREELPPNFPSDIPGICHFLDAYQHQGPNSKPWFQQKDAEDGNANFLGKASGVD
The assay can be described thus: Action on recombinant guanylate cyclase reporter cell line. Format: cell-based. As to the method:
B-2. Action on Recombinant Guanylate Cyclase Reporter Cell Line
The cellular action of the compounds according to the invention is determined on a recombinant guanylate cyclase reporter cell line, as described in F. Wunder et al., Anal. Biochem. 339, 104-112 (2005).

As for `CC1(C)C(=O)Nc2nc(-c3nn(Cc4ccccc4F)c4ncccc34)nc(NCc3ccccn3)c21` [Example 55, 2-[1-(2-fluorobenzyl)-1H-pyrazolo[3,4-b]pyridin-3-yl]-5,5-dimethyl-4-[(pyridin-2-ylmethyl)amino]-5,7-dihydro-6H-pyrrolo[2,3-d]pyrimidin-6-one], half-maximal inhibition in assay [1] (IC50) was put at 130 nM. Moreover, the “MEC (minimal effective concentration)” value in assay [2] is listed as 0.03 μm.
With `CCN(CCOC)c1nc(-c2nn(Cc3ccccc3F)c3ncccc23)nc2c1C(C)(C)C(=O)N2` [Example 61, 4-[ethyl(2-methoxyethyl)amino]-2-[1-(2-fluorobenzyl)-1H-pyrazolo[3,4-b]pyridin-3-yl]-5,5-dimethyl-5,7-dihydro-6H-pyrrolo[2,3-d]pyrimidin-6-one], the IC50 (commonly the concentration that inhibits the measured activity by half) in assay [1] was determined as 100 nM. For the same compound, the “MEC (minimal effective concentration)” value in assay [2] is listed as 0.03 μm.
The corresponding values for `CC1(C)C(=O)Nc2nc(-c3nn(Cc4ccccc4F)c4ncccc34)nc(NC[C@H]3CCCO3)c21` [Example 86, 2-[1-(2-fluorobenzyl)-1H-pyrazolo[3,4-b]pyridin-3-yl]-5,5-dimethyl-4-[(tetrahydrofuran-2-ylmethyl)amino]-5,7-dihydro-6H-pyrrolo[2,3-d]pyrimidin-6-one] are 330 nM and 0.01 μm.
The corresponding values for `CC1(C)C(=O)Nc2nc(-c3nn(Cc4ccccc4F)c4ncccc34)nc(N3CCC(O)CC3)c21` [Example 52, 2-[1-(2-fluorobenzyl)-1H-pyrazolo[3,4-b]pyridin-3-yl]-4-(4-hydroxypiperidin-1-yl)-5,5-dimethyl-5,7-dihydro-6H-pyrrolo[2,3-d]pyrimidin-6-one] are 34 nM and 0.01 μm.
The corresponding values for `CC1(C)C(=O)Nc2nc(-c3nn(Cc4ccccc4F)c4ncccc34)nc(Nc3ccncc3)c21` [Example 69, 2-[1-(2-fluorobenzyl)-1H-pyrazolo[3,4-b]pyridin-3-yl]-5,5-dimethyl-4-(pyridin-4-ylamino)-5,7-dihydro-6H-pyrrolo[2,3-d]pyrimidin-6-one] are 46 nM and 0.3 μm.
For the compound `CC1(C)C(=O)Nc2nc(-c3nn(Cc4ccccc4F)c4ncccc34)nc(N3CCCC3)c21` [Example 64, 2-[1-(2-fluorobenzyl)-1H-pyrazolo[3,4-b]pyridin-3-yl]-5,5-dimethyl-4-(pyrrolidin-1-yl)-5,7-dihydro-6H-pyrrolo[2,3-d]pyrimidin-6-one], the IC50 in assay [1] is 980 nM. The “MEC (minimal effective concentration)” value in assay [2] came out at 0.1 μm.
Taken in the same sequence, the figures for `Cc1nccn1-c1nc(-c2nn(Cc3ccccc3F)c3ncccc23)nc2c1C(C)(C)C(=O)N2` [Example 62, 2-[1-(2-fluorobenzyl)-1H-pyrazolo[3,4-b]pyridin-3-yl]-5,5-dimethyl-4-(2-methyl-1H-imidazol-1-yl)-5,7-dihydro-6H-pyrrolo[2,3-d]pyrimidin-6-one] were 480 nM and 0.1 μm.
Regarding `Cn1ccc(CNc2nc(-c3nn(Cc4ccccc4F)c4ncccc34)nc3c2C(C)(C)C(=O)N3)n1` [Example 48, 2-[1-(2-fluorobenzyl)-1H-pyrazolo[3,4-b]pyridin-3-yl]-5,5-dimethyl-4-{[(1-methyl-1H-pyrazol-3-yl)methyl]amino}-5,7-dihydro-6H-pyrrolo[2,3-d]pyrimidin-6-one], in assay [1], the half-inhibitory concentration (IC50) is 54 nM. Further, the “MEC (minimal effective concentration)” value in assay [2] amounted to 0.1 μm.
The corresponding values for `CC1(C)C(=O)Nc2nc(-c3nn(Cc4ccccc4F)c4ncccc34)nc(N[C@@H]3CCCNC3=O)c21` [Example 81, 2-[1-(2-fluorobenzyl)-1H-pyrazolo[3,4-b]pyridin-3-yl]-5,5-dimethyl-4-[(2-oxopiperidin-3-yl)amino]-5,7-dihydro-6H-pyrrolo[2,3-d]pyrimidin-6-one] are 290 nM and 0.03 μm.
The corresponding values for `CC1(C)C(=O)Nc2nc(-c3nn(Cc4ccccc4F)c4ncccc34)nc(N3CCOCC3)c21` [Example 72, 2-[1-(2-fluorobenzyl)-1H-pyrazolo[3,4-b]pyridin-3-yl]-5,5-dimethyl-4-(morpholin-4-yl)-5,7-dihydro-6H-pyrrolo[2,3-d]pyrimidin-6-one] are 110 nM and 0.1 μm.
For `CC1(C)C(=O)Nc2nc(-c3nn(Cc4ccccc4F)c4ncccc34)nc(Nc3ccccc3)c21` [Example 87, 2-[1-(2-fluorobenzyl)-1H-pyrazolo[3,4-b]pyridin-3-yl]-5,5-dimethyl-4-(phenylamino)-5,7-dihydro-6H-pyrrolo[2,3-d]pyrimidin-6-one], the IC50 in assay [1] is 210 nM. Besides, in assay [2], the “MEC (minimal effective concentration)” value was 0.03 μm.
Taken in the same sequence, the figures for `COCCCNc1nc(-c2nn(Cc3ccccc3F)c3ncccc23)nc2c1C(C)(C)C(=O)N2` [Example 74, 2-[1-(2-fluorobenzyl)-1H-pyrazolo[3,4-b]pyridin-3-yl]-4-[(3-methoxypropyl)amino]-5,5-dimethyl-5,7-dihydro-6H-pyrrolo[2,3-d]pyrimidin-6-one] were 110 nM and 0.01 μm.
Consider `CC1(C)C(=O)Nc2nc(-c3nn(Cc4ccccc4F)c4ncccc34)nc(NCC3CC3)c21` [Example 43, 4-[(cyclopropylmethyl)amino]-2-[1-(2-fluorobenzyl)-1H-pyrazolo[3,4-b]pyridin-3-yl]-5,5-dimethyl-5,7-dihydro-6H-pyrrolo[2,3-d]pyrimidin-6-one], for which the IC50 in assay [1] worked out at 410 nM. Further, in assay [2], the “MEC (minimal effective concentration)” value is recorded as 0.03 μm.
